Assay results: paper doi:10.1101/2020.07.29.226878v1 (bioRxiv, 2020)

Legend:
[1] = tested on: sheep blowflies (Lucilia cuprina); experiment: In vivo insecticidal assay, intrathoracic injection into sheep blowflies
Acheta domesticus = conditions: tested in Acheta domesticus; cited from earlier work

Substance	LD50 in blow fly assays (abstract) [1] [nM]	LD50 at 24 h (Acheta domesticus) [nmol/g]
Δ-pseudomyrmecitoxin-Pp1a [Δ-PSDTX-Pp1a]	3	–
ponericin G1	–	25.7
